Laboratory results taken from paper PMC3345971 (Bioorganic & medicinal chemistry, 2012).

Key:
[1] = molecular target: human dopamine transporter (hDAT) (Macaca fascicularis, UniProt Q9GJT6); test: Inhibition of [3H]WIN35,428 binding to the dopamine transporter; settings: DAT over SERT
DAT = settings: cited from earlier work; for IC50: read-out: DAT IC50, oxatropenes substituted at the C3 position
SERT = settings: cited from earlier work

Chain of human dopamine transporter (hDAT) (Q9GJT6 whole entry): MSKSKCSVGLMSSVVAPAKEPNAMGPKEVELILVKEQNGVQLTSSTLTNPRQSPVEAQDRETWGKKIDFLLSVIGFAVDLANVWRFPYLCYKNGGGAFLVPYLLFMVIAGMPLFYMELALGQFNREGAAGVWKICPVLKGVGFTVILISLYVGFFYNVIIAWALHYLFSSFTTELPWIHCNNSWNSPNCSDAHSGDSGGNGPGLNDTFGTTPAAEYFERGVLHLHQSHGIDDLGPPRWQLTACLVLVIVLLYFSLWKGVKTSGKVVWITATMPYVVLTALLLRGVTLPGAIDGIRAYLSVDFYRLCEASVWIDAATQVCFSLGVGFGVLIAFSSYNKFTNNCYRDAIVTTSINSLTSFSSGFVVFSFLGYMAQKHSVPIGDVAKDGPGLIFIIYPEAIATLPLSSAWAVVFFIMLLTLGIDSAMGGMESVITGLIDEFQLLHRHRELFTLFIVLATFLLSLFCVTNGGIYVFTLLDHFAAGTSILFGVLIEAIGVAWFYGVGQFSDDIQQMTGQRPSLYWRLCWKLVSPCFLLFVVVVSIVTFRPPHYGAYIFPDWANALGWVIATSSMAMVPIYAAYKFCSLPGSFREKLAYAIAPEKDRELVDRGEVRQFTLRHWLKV

## (R,S)-3-[2-Benzothiophen-2-yl] -8-oxa-bicyclo[3.2.1]oct-2-ene-2carboxylic acid methyl ester [14m]
[1]
  selectivity for DAT vs. SERT: 177 fold

## 2β-carbomethoxy-3β-(2-naphthyl)-8-aza-bicyclo[3.2.1]octanes
DAT
  inhibition of DAT: 0.49 nM
SERT
  inhibition of SERT: 2.19 nM

## 2β-Carbomethoxy-3 β-[2-furylphenyl]-8-azabicyclo[3.2.1]tropane
DAT; reported by Tamagnan et al
  DAT binding: 3.76 nM
SERT; reported by Tamagnan et al
  SERT binding: 0.15 nM

## COC(=O)C1=C(c2ccc3cc4ccccc4cc3c2)CC2CCC1O2 (centres unmarked) [oxatropene with 2-anthracenyl]
DAT
  IC50: > 40 µM

## COC(=O)C1=C(c2ccc3ccccc3c2)CC2CCC1O2 (centres unmarked) [oxatropene with 2-naphthyl]
DAT
  IC50: 0.02 µM

## COC(=O)C1=C(c2cccc3ccccc23)CC2CCC1O2 (centres unmarked) [oxatropene with 1-naphthyl]
DAT
  IC50: 1.72 µM
